# According to patent US5998423A, “Methods for modulating melanin production” (Therasys, Inc., priority 1997, dated 1999):
# Columns and labels:
# melanoma cell lines = conditions: cited from earlier work
# [1] = tested on: Mouse, Cloudman S91 Melanoma Cell line; assay: Stimulation of melanin synthesis in cell culture (melanin content, OD 475 nm); assay type: cell-based; conditions: result in words; incubation 5-7 days at 37° C.; values only in FIG. 6
# Description: A Mouse, Cloudman S91 Melanoma Cell line (Clone M-3, ATCC CCL-53.1) was used. The cells were flown as monolayers. These cells multiply 7-8 fold in 7 days and are know to produce melanin in over 50% of the cells up to at least 33 passages. Horse serum, fetal Bovine serum, Penicillin-streptomycin and F-10 nutrient mixture were all obtained from Life Technologies (GIBCO, Grand Island, N.Y.). N^6 -Cyclopentyl-9-methyladenine (N-154) and C-102 (CPT) were obtained from RBI (Natick, Mass.). 1-Oleoyl-2-acetyl-rac-glycerol, activated charcoal, Triton X-100, phenyl methyl sulfonyl fluoride, theophylline, synthetic melanin and L-tyrosine-[Ring-3,5] were all obtained from Sigma Chemical Co. (St. Louis, Mo.). The culture medium used was Ham's F-10. The composition of the medium was as follows: Ham's F-10 Nutrient Mixture (82.5%), horse serum (15.0%), fetal bovine serum (2.5%), penecillin-streptomycin mixture (1.0%).
# Cells were incubated with the indicated reagents (see FIG. 6) at 37° C. under 5% CO2 atmosphere for 5-7 days. At the time of harvest, exhausted medium was removed from flasks/wells and cells were treated with 1-5 mL of 0.25% trypsin for 2-3 minutes. […]
# The pellet (from above extraction) was dissolved in 0.25 mL of 0.5 N NaOH and the optical density was measured at 475 nm. The melanin content was determined from a standard curve obtained by using a synthetic melanin.
# adenylate cyclase = conditions: through activation of adenylate cyclase, thereby increasing cAMP levels; cited from earlier work
compound,measurement,setting,value
"Cn1c(=O)c2[nH]cnc2n(C)c1=O [Theophylline, theophylline]",stimulation of melanogenesis,melanoma cell lines,potent stimulator of melanogenesis
Cn1cnc2c(NC3CCCC3)ncnc21 [N^6 -Cyclopentyl-9-methyladenine],stimulation of melanin synthesis,[1],stimulation of melanin synthesis
α-MSH,melanin production,adenylate cyclase,increase melanin production
